Results published in patent US11407742B2 (THE KITASATO INSTITUTE, priority 2017, dated 2022).
Values after ≈ are worked out from the molar mass of the structure shown.

How the values were obtained:
[1] = system: Mycobacterium intracellulare JCM 6384 strain; assay: Antibacterial activity against Mycobacterium avium complex, broth microdilution MIC (Test II-1); assay type: cell-based; conditions: JCM6384, 37° C. for 120 hours, MTT, minimum concentration inhibiting growth of 90% or more
Experimental: (§1) 6 mL of 7H9 liquid medium (Middlebrook 7H9 broth 0.5% (DIFCO), bovine serum albumin 5.0% (SIGMA), glucose 2.0% (Wako Pure Chemical Industries, Ltd.) and sodium chloride 0.85% (Kanto Chemical Co., Inc.)) containing 0.05% Tween80 (Wako Pure Chemical Industries, Ltd.) was put in a cell culturing flask T25 (Corning incorporated). To this flask was added 200 μL of a glycerol stored bacterial suspension of Mycobacterium avium (JCM15430, given by Institute of Physical and Chemical Research, Microbe Division) or 120 μL of a glycerol stored bacterial suspension of Mycobacterium intracellulare (JCM6384, given by Institute of Physical and Chemical Research, Microbe Division). The Mycobacterium avium was statically cultured at 37° C. for 96 hours, and the Mycobacterium intracellulare was statically cultured at 37° C. for 72 hours. The cultured bacterial suspension was diluted with the medium by 200 times for the Mycobacterium avium and by 600 times for the Mycobacterium intracellulare to prepare bacterial suspensions for inoculation (equivalent to 4×10^6 CFU/mL). The minimum inhibitory concentration (MIC) of each bacterial suspension was measured by carrying out a broth microdilution method in accordance with the following procedure. To a 96-well microplate, a two-stage dilution series (a final concentration of 0.001 to 50 μg/mL) of a test compound sample prepared beforehand was dispensed at 5 μL/well. Next, the bacterial suspension for inoculation was added at 95 μL/well. The culture solution in the well was mixed, and the resulting mixture cultured at 37° C. for 120 hours. After the culture, MTT reagent (SIGMA) was added at 5 μL/well, and the resulting mixture was cultured at 37° C. for 16 hours. Thereafter, a cytolytic buffer (dimethylformamide: 40.0% (nacalai tesque), acetic acid: 2.0% (Kanto Chemical Co., Inc.), sodium dodecyl sulfate: 20.0% (Wako Pure Chemical Industries, Ltd.), hydrochloric acid: 0.03 N (Kanto Chemical Co., Inc.)) at 95 μL/well, and the resulting mixture was shaken for 1 hour. For the culture solution in each well, the absorbance was measured at 570 nm, the growth inhibition rate was then calculated, and the minimum concentration indicative of inhibition of growth of 90% or more of bacteria was defined as a MIC value. Compounds 40551-F, -D, -G, -H, -I, -K and -L were used as test compounds, and ethambutol which is a known drug that is used for treatment of MAC infection was used as a comparative compound.

[2] = system: Mycobacterium avium JCM 15430 strain; assay: as above; assay type: cell-based; conditions: JCM15430, 37° C. for 120 hours, MTT, minimum concentration inhibiting growth of 90% or more
Experimental: as §1

Solubility in solvent = assay type: physicochemical; conditions: organic solvents (methanol, DMSO)
[3] = system: Mycobacterium bovis BCG Pasteur strain; assay: microbe, parasite or virus in culture; assay type: cell-based; conditions: Mycobacterium tuberculosis variant bovis BCG
[4] = system: Mycobacterium smegmatis MC^2155 strain; assay: Antibacterial activity against other nontuberculous mycobacteria, broth microdilution MIC (Test II-2); assay type: cell-based; conditions: Mycolicibacterium smegmatis, 37° C. for 30 hours, growth observed with the naked eye
Experimental: as §1
A test against Mycobacterium smegmatis as other nontuberculous mycobacteria was conducted in accordance with the following procedure. 6 mL of 7H9 liquid medium containing 0.5% Tween80 (Wako Pure Chemical Industries, Ltd.) was put in a cell culturing flask T25 (Corning incorporated). In this flask, a glycelol stored bacterial suspension of Mycobacterium smegmatis (MC^2155, acquired from American Type Culture Collection) was inoculated with one platinum loop, and statically cultured at 37° C. for 30 hours. The cultured bacterial suspension was then diluted by 200 times with the medium to prepare a bacterial suspension for inoculation (equivalent to 8×10^6 CFU/mL). The MIC of the bacterial suspension was measured by carrying out a broth microdilution method in the same procedure as in Test II-1. The bacterial suspension was cultured under conditions of 37° C. for 30 hours, and the MIC value was determined by observing growth of bacteria with the naked eye.

| SMILES | MIC [1] [µg/mL] | MIC [2] [µg/mL] | Solubility in solvent (Solubility in solvent) | MIC [3] [µg/mL] | MIC [4] [µg/mL] |
| --- | --- | --- | --- | --- | --- |
| CC(C)C(=O)Nc1ccc(C(=O)Nc2ccn(C3CCC(OC4OC(C)C(N(C)C)C(O)C4O)C(C)O3)c(=O)n2)cc1 (stereo not drawn) [Compound 40551-D] | 12.5 (≈ 21.3 µM) | 12.5 (≈ 21.3 µM) | soluble in methanol, DMSO, etc. | 6.25 (≈ 10.6 µM) |  |
| CC(C)=CC(=O)Nc1ccn(C2CCC(OC3OC(C)C(N(C)C)C(O)C3O)C(C)O2)c(=O)n1 (stereo not drawn) [Compound 40551-F, N-(1-(5-((5-(dimethylamino)-3,4-dihydroxy-6-methyltetrahydro-2H-pyran-2-yl)oxy)-6-methyltetrahydro-2H-pyran-2-yl)-2-oxo-1,2-dihydropyrimidine-4-yl)-3-methylbuta-2-enamide] | 0.39 (≈ 0.812 µM) | 0.78 (≈ 1.62 µM) | soluble in methanol, DMSO, etc. | 1.56 (≈ 3.25 µM) | 3.12 (≈ 6.49 µM) |
| CCC(C)/C=C/C(=O)Nc1ccn(C2CCC(OC3OC(C)C(N(C)C)C(O)C3O)C(C)O2)c(=O)n1 (stereo not drawn) [Compound 40551-G] | 3.12 (≈ 6.13 µM) | 6.25 (≈ 12.3 µM) | soluble in methanol, DMSO, etc. | 6.25 (≈ 12.3 µM) | 12.5 (≈ 24.6 µM) |
| CC1OC(n2ccc(NC(=O)c3ccc(N4C(=O)C(C)(CO)NC4(C)C)cc3)nc2=O)CCC1OC1OC(C)C(N(C)C)C(O)C1O (stereo not drawn) [Compound 40551-H] | 1.56 (≈ 2.37 µM) | 12.5 (≈ 19 µM) | soluble in methanol, DMSO, etc. | 0.39 (≈ 0.592 µM) | 1.56 (≈ 2.37 µM) |
| C/C=C(\C)C(=O)Nc1ccn(C2CCC(OC3OC(C)C(N(C)C)C(O)C3O)C(C)O2)c(=O)n1 (stereo not drawn) [Compound 40551-I, (E)-N-(1-(5-((5-(dimethylamino)-3,4-dihydroxy-6-methyltetrahydro-2H-pyran-2-yl)oxy)-6-methyltetrahydro-2H-pyran-2-yl)-2-oxo-1,2-dihydropyrimidin-4-yl)-2-methylbuta-2-enamide] | 25 (≈ 52 µM) |  | soluble in methanol, DMSO, etc. | 6.25 (≈ 13 µM) |  |
| CC(C)CC(=O)Nc1ccn(C2CCC(OC3OC(C)C(N(C)C)C(O)C3O)C(C)O2)c(=O)n1 (stereo not drawn) [Compound 40551-K] | 6.25 (≈ 13 µM) | 25 (≈ 51.8 µM) | soluble in methanol, DMSO, etc. | 6.25 (≈ 13 µM) | 25 (≈ 51.8 µM) |
| CC(C)/C=C/C(=O)Nc1ccn(C2CCC(OC3OC(C)C(N(C)C)C(O)C3O)C(C)O2)c(=O)n1 (stereo not drawn) [Compound 40551-L, (E)-N-(1-(5-((5-(dimethylamino)-3,4-dihydroxy-6-methyltetrahydro-2H-pyran-2-yl)oxy)-6-methyltetrahydro-2H-pyran-2-yl)-2-oxo-1,2-dihydropyrimidin-4-yl)-4-methylpenta-2-enamide] | 0.78 (≈ 1.58 µM) | 3.12 (≈ 6.31 µM) | soluble in methanol, DMSO, etc. | 1.56 (≈ 3.15 µM) | 3.12 (≈ 6.31 µM) |
| CC[C@@H](CO)NCCN[C@@H](CC)CO [Ethambutol, reference compound] | 3.12 (≈ 15.3 µM) | 12.5 (≈ 61.2 µM) |  | 1.56 (≈ 7.64 µM) | 0.78 (≈ 3.82 µM) |
